The text below walks through data of patent US20100184653A1, “Derivates of Polyethylene Glycol Modified Thymosin Alpha 1” (Jiangsu Hansen Pharmaceutical Co., Ltd., priority 2008, published 2010).

The half-life is the time needed for the level to fall by half in the phase considered.

Residues, ends and D or L forms follow the SMILES beside them. No end group written: not given here.

The subject of data set [1] is T-lymphocytes (mice's spleen cells). As to the kind of experiment: ConA-induced IL-2 production by mouse spleen T lymphocytes, ELISA of culture supernatant. Format: cell-based, ICR mice. Set-up: unit not given here. The conditions noted are these: 24 hours. As for the experimental part:
(§1) With Zadaxin as a positive control, the effect of the samples on T-lymphocytes producing cytokines were tested to confirm if the samples could adjust T-lymphocyte immune activity and the extent thereof.
(§2) In the lymphocytes cultured in vitro, T cell can be activated by the stimulation of mitosis Concanavalin A and brings change of cells' behavior such as cytokine synthesis, cytokine receptor expression, cell differentiation and cell proliferation. The generation of cytokine and proliferation of the cell are response of the immune cell function and cell activation. Detection means is reliable, simple, and with good repeatability, therefore, evaluating the samples' effect to the function of T lymphocytes by detecting cytokine generation and cell proliferation has been widely applied.
(§3) Preparation of spleen cell suspension: mice's spleen was obtained under aseptic condition, which was ground with frosted glass. The spleen cell suspension was thus obtained. After red blood lysis, the spleen cell suspension was washed three times, counted (live cells being more than 95%). The concentration of spleen cell was adjusted to 5×10^6 cells/ml with 10% FBS (bovine serum) RPMI1640 culture fluid.
(§4) The concentration of mice's Spleen cells was adjusted to 5×10^6 cells/ml, and then distributed it into 24 wells plate with 1 ml/well; samples with various concentrations were added into the plate respectively with 0.5 ml/well; and then ConA (20 ug/ml) was added with 0.5 ml/well. The samples were kept at 37° C. in CO2 incubator for 24 hours, centrifuged and collected culture supernatant.
(§5) Antibody Coating: The antibody was diluted with coating buffer and then was added into 96 well ELISA plates with 50 μL each wells. The plate was left overnight at […].
(§6) Blocking: The antibody coating buffer was removed, and the plate was washed 3 times with washing solution (PBS/Tween solution). 100 μL of blocking buffer (PBS/10% FBS) was added to each wells of the plates. The plate was incubated at room temperature for 1 hour.
(§7) Standards and samples: The blocking buffer was removed from the plates, which was washed 3 times with washing solution (PBS/Tween solution) and followed by adding standards and samples with 50 μL each wells. The plate was incubated at room temperature for 2 hours.
(§8) Detection of Antibody and Enzyme: The standards and samples were removed from the plates. The plate was washed 3 times with washing solution (PBS/Tween solution). The diluted detective antibody and enzyme HRP were added into the plate with 50 μL each wells. The plate was incubated at room temperature for 1 hour.
(§9) Substrate Staining: The diluted detection antibody and enzyme HRP were removed from the plate which was then washed 3 times with washing solution (PBS/Tween solution). The substrate resolved in citricic acid/hydrogen peroxide (TMB) was added into the plate with 50 μL each wells. The plate was incubated at room temperature away from the light for 30 minutes. After being stained, stop solution 2N H2SO4 was added into the plate with 25 μL per well.
(§10) OD Detection: The plate was placed into enzyme-labeled instrument and read OD values at 450 nm (calibrated value of 570 nm).
For orientation: ELISA stands for enzyme-linked immunosorbent assay.

Data set [2] has the same test system. The data set is described as follows: ConA-induced IFN-γ production by mouse spleen T lymphocytes, ELISA of culture supernatant. Format: cell-based, ICR mice. Set-up: Mean (IFN-γ, ConA-induced cytokine production): unit not given here. To be noted: for Mean (IFN-γ, ConA-induced cytokine production): 24 hours. How it is done: as §1, §2, §3, §4, §5, §6, §7, §8, §9, §10

Data set [3] in a line: Pharmacokinetic test, half life after hypodermic injection. The conditions noted are these: in vivo, subcutaneous.
The conditions of data set [4]: in body; cited from earlier work.

In the case of “PEG-TA1: thymosin alpha 1 modified with PEG (derivative when n was 0); b135 calls it modified at the N-terminal (SDAAVDTSSEITTKDLKEKKEVVEEAEN; not fully specified (N-terminus); ends and bridges not checked; also: PEG attached, site unclear; UniProt P06454 2-29, looked up)”, the “Mean (IL-2, ConA-induced cytokine production)” value in data set [1] (sample 0.001 ug/ml) worked out at 3505; in data set [1] (sample 0.01 ug/ml), 3438; in data set [1] (sample 0.1 ug/ml), 3339; in data set [1] (sample 1 ug/ml) it was 3214; in data set [1] (sample 10 ug/ml), 3348; in data set [1] (sample 100 ug/ml), 3582. In addition, in data set [2] (compared with Zadaxin, several experimental concentration), the “stimulation of the production of IFN-r by T cells” value was “more effective”. The “Mean (IFN-γ, ConA-induced cytokine production)” value in data set [2] (sample 0.001 ug/ml) stood at 4809; in data set [2] (sample 0.01 ug/ml) it was 4603; in data set [2] (sample 0.1 ug/ml), 4141; in data set [2] (sample 1 ug/ml), 4949; in data set [2] (sample 10 ug/ml) it was 3874; in data set [2] (sample 100 ug/ml), 5467.
Compound `CC[C@H](C)[C@H](NC(=O)[C@H](CCC(=O)O)NC(=O)[C@H](CO)NC(=O)[C@H](CO)NC(=O)[C@@H](NC(=O)[C@H](CC(=O)O)NC(=O)[C@@H](NC(=O)[C@H](C)NC(=O)[C@H](C)NC(=O)[C@H](CC(=O)O)NC(=O)[C@H](CO)NC(C)=O)C(C)C)[C@@H](C)O)C(=O)N[C@H](C(=O)N[C@H](C(=O)N[C@@H](CCCCN)C(=O)N[C@@H](CC(=O)O)C(=O)N[C@@H](CC(C)C)C(=O)N[C@@H](CCCCN)C(=O)N[C@@H](CCC(=O)O)C(=O)N[C@@H](CCCCN)C(=O)N[C@@H](CCCCN)C(=O)N[C@@H](CCC(=O)O)C(=O)N[C@H](C(=O)N[C@H](C(=O)N[C@@H](CCC(=O)O)C(=O)N[C@@H](CCC(=O)O)C(=O)N[C@@H](C)C(=O)N[C@@H](CCC(=O)O)C(=O)N[C@@H](CC(N)=O)C(=O)O)C(C)C)C(C)C)[C@@H](C)O)[C@@H](C)O` [Zadaxin, thymosin alpha 1] (Ac-SDAAVDTSSEITTKDLKEKKEVVEEAEN-OH) showed a half-life in data set [3] of approximately 2 h. In data set [4], the T1/2 was 2 h.
“Ac-Ser-Asp-Ala-Ala-Val-Asp-Thr-Ser-Ser-Glu-Ile-Thr-Thr-Lys-Asp-Leu-Lys-Glu-Lys-Lys-Glu-Val-Val-Glu-Glu-Ala-Glu-Asn-Gly-Gly-Cys-PEG40K (Ac-SDAAVDTSSEITTKDLKEKKEVVEEAENGG-{C(branched 40K mPEG-maleimide)}) [T-GG-C-mPEG, thymosin alpha 1 peptide derivative modified with PEG; PEG40K: branched-chain (mPEG)2-MAL]”: the “Mean (IL-2, ConA-induced cytokine production)” value in data set [1] (sample 0.001 ug/ml) was 3409; in data set [1] (sample 0.01 ug/ml), 3610; in data set [1] (sample 0.1 ug/ml) it was 3530; in data set [1] (sample 1 ug/ml) it was 3397; in data set [1] (sample 10 ug/ml) it was 3618; in data set [1] (sample 100 ug/ml) it was 3692. For the same compound, the “activity of promoting the production of IFN-r by T cells” value in data set [2] (all experimental concentrations) is “showed activity”. The “promoting the production of IFN-r by T cells” value in data set [2] (compared with PEG-TA1) is “more effective than the thymosin alpha 1 modified with PEG at the N-terminal”. For the same compound, the “Mean (IFN-γ, ConA-induced cytokine production)” value in data set [2] (sample 0.001 ug/ml) was 4703; in data set [2] (sample 0.01 ug/ml) it was 4891; in data set [2] (sample 0.1 ug/ml), 4654; in data set [2] (sample 1 ug/ml), 4990; in data set [2] (sample 10 ug/ml), 5102; in data set [2] (sample 100 ug/ml) it was 5577.
